The source of these data is patent US20210145850A1, “COMPOSITION, FOR OSTEOARTHRITIS TREATMENT, COMPRISING HYDROPHILIZED SULFASALAZINE AND HYALURONIC ACID AND METHOD FOR PREPARING SAME” (BMI KOREA CO., LTD, priority 2015, published 2021).

For data set [1] the following is noted: taken orally, maximum dose of 4 g/day; cited from earlier work.
For data set [2], the system named is osteoarthritis animal model induced by 1 mg MIA (Monosodium IodoAcetate) in synovium. The experiment in a line: In vivo anti-osteoarthritis efficacy test, X-ray of joint region. Details: species or system rat (Sprague Dawley). Here is the method: FIG. 4 is X-ray radiographs of osteoarthritis animal model (rat) induced by treating 1 mg MIA in synovium at 8 weeks after administering the osteoarthritis composition comprising hydrophilized sulfasalazine and hyaluronic acid according to the present invention of 0 to 8 mM. After inducing an osteoarthritis animal model by treating 1 mg MIA (Monosodium IodoAcetate) to synovium of 8 week-old rat (Sprague Dawley), after 1 week, mixtures prepared in Example 1 was administered by intraarticular injection.

For data set [3] the following is noted: as component of synovial fluid; cited from earlier work.

Consider `O=C(O)c1cc(/N=N/c2ccc(S(=O)(=O)Nc3ccccn3)cc2)ccc1O` [sulfasalazine], for which the blood concentration in data set [1] was 12000 ng/mL. Besides, the anti-osteoarthritis effect entry in data set [2] (less than 2 mM (0.08 w/v %)) is on record as “anti-osteoarthritis effect could not be shown”. Moreover, in data set [2] (low concentration, for example 1 mM), the osteoarthritis treatment effect result is reported as “could not show an effective level of osteoarthritis treatment effect”.

Take hyaluronic acid: in data set [3], the half life entry is recorded as “more than 13 hours”.
